One block for each compound: values may come before it. Residues, ends and D or L forms follow the SMILES beside them. *: point of attachment. DOTA = O=C(O)CN1CCN(CC(=O)O)CCN(CC(=O)*)CCN(CC(=O)O)CC1
What was measured:
[1] = Biodistribution of 111In-DOTA-labelled hLF variants after intravenous injection; assay type: in vivo, C57BI/6 mice; details: i.v., 4 hours
Experimental: Female and male 10-12-weeks-old C57BI/6 mice (Charles River) were injected via the tail vein with 50 μl of 200 μM 111 In-DOTA-labelled hLF peptides. […] Organs were collected 4 hours after injection, and radioactivity was measured in a gamma-counter. The percentage injected dose per gram of tissue (% ID/gram) was determined for each tissue and ratios between organs were calculated.

[2] = Biodistribution of Cy5.5-hLF in LPS-induced inflammation mouse model; assay type: in vivo, C57BI/6 mice; details: for organ with highest signal: LPS-treated and non-treated mice; for localization in the glomeruli: kidney of LPS-treated mice
Experimental: At the start, 8- to 10-week-old C57BI/6 mice (Charles River) received an intraperitoneal injection with either 100 μl of 2 mg/kg LPS in 5% glucose solution, or only 5% glucose solution. After 24 hours, mice were injected with 50 μl of 200 μM Cy5.5-labelled peptide. Assuming a blood volume of 1.2 ml this would theoretically result in a concentration of ~8.5 μM in the circulation. After 4 hours, organs were perfused with phosphate buffer, followed by 4% PFA. Organs were removed and peptide distribution was analysed using the In Vivo Imaging System (IVIS; Perkin Elmer). Organs were then fixed by overnight incubation in 4% PFA, followed by overnight incubation in 30% sucrose. Subsequently, organs were frozen for analysis by confocal laser-Scanning microscopy using a TCS SP5 confocal microscope (Leica Microsystems). Glomerular and tubular regions were selected in microscopical pictures from which the mean fluorescence intensity was determined by ImageJ software.

mGEnC treated with TNFα = assay: Uptake by mGEnC after activation with TNFα; assay type: cell-based; details: 10 ng/ml mouse TNFα 16 hours
Experimental: (§1) Conditionally immortalized mouse glomerular endothelial cells (mGEnC) were cultured as previously described (Rops et al. Kidney Int. 2004; 66 (6): 2193-201). HeLa cells were employed as a frequently used model cell line and were cultured in DMEM/F12 medium containing 10% fetal calf serum (FCS). For studying uptake, cells were incubated in their respective medium with 10% FCS containing fluorescein-labelled peptides at the indicated concentrations for 20 minutes at 37 °C. In some cases, cells were activated for 16 hours with 10 ng/ml mouse TNFα (Sigma), or co-incubated with Alexa Fluor 633-labeled transferrin (Invitrogen Molecular Probes). Subsequently, cells were washed with PBS and analysed using confocal laser-scanning microscopy on a TCS SP5 confocal microscope (Leica Microsystems), or detached by trypsin/EDTA and analysed on a FACSCalibur Flow cytometer (BD Biosciences) by measuring 20,000 cells.
(§2) Conditionally immortalized mouse glomerular endothelial cells (mGEnC) were cultured as previously described (Rops et al. Kidney Int. 2004; 66 (6): 2193-201). Cells were incubated in their respective medium with 10% FCS containing fluorescein-labelled peptides at 5 μM for 20 minutes at 37 °C. In some cases, cells were activated for 16 hours with 10 ng/ml mouse TNFα (Sigma), or co-incubated with 100 μg/ml Alexa Fluor 633-labeled transferrin (Invitrogen Molecular Probes). Pre-treatment with ITLN-1 or control siPool siRNA (siTools Biotech) was performed according to the manufacturer's protocol. Subsequently, cells were detached with trypsin/EDTA and analysed by flow cytometry on a FACSCalibur Flow cytometer (BD Biosciences). For immunostaining, cells or 5-μm cryosections of mouse kidney were fixed for 10 minutes with 4% paraformaldehyde, and in the indicated cases permeabilized with 0.3% Triton X-100 in PBS. Subsequently, cells and cryosections were stained for 1 hour with anti-intelectin-1 (R&D Systems) or anti-LRP-1 (Abcam) antibodies, and after washing incubated for 1 hour with the appropriate Alexa Fluor-labelled secondary antibody (Invitrogen Molecular Probes). Cells and cryosections were analyzed by confocal laser-Scanning microscopy was performed using a TCS SP5 confocal microscope (Leica Microsystems).

ITLN-1 = target: T1, ITLN-1 (Mus musculus, UniProt O88310); assay: Uptake by mGEnC after downregulation of ITLN-1 with siRNA; assay type: cell-based; details: peptides at 5 μM, FIG. 2E
T1 construct: ITLN-1 siRNA versus control siRNA
T1 sequence (O88310 19-298): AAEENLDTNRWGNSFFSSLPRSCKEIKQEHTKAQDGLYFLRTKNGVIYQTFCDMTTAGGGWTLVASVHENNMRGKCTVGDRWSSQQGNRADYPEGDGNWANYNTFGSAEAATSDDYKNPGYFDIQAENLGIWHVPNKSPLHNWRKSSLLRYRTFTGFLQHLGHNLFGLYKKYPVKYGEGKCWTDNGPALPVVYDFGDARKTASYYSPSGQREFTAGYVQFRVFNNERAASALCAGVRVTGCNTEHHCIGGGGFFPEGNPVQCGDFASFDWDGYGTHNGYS
Experimental: as §2

Podocytes = assay: Uptake in multiple cell lines (Table 2): Podocytes; assay type: cell-based; details: fluorescein-labeled peptide, confocal microscopy, Podocytes (mouse)
Experimental: as §1
as §2, with “Subsequently, cells and cryosections were stained for 1 hour with anti-intelectin-1 (R&D Systems) or anti-LRP-1 (Abcam) antibodies, and after washing incubated for 1 hour with the appropriate Alexa Fluor-labelled secondary antibody (Invitrogen Molecular Probes).” left out

[3] = system: mouse glomerular endothelial cells (mGEnC); assay: Uptake of fluorescein-labelled peptides by mGEnC (flow cytometry); assay type: cell-based; details: different concentrations, 20 minutes at 37 °C, FIG. 1A
Experimental: as §1

EOMA = assay: Uptake in multiple cell lines (Table 2): EOMA; assay type: cell-based; details: fluorescein-labeled peptide, confocal microscopy, EOMA (mouse)
HUVEC = assay: Uptake in multiple cell lines (Table 2): HUVEC; assay type: cell-based; details: fluorescein-labeled peptide, confocal microscopy, HUVEC (human)
mGEnC = assay: Uptake in multiple cell lines (Table 2): mGEnC; assay type: cell-based; details: fluorescein-labeled peptide, confocal microscopy, mGEnC (mouse)
Experimental: as §1
as §2, with “Subsequently, cells and cryosections were stained for 1 hour with anti-intelectin-1 (R&D Systems) or anti-LRP-1 (Abcam) antibodies, and after washing incubated for 1 hour with the appropriate Alexa Fluor-labelled secondary antibody (Invitrogen Molecular Probes).” left out

hGEnC = assay: Uptake in multiple cell lines (Table 2): hGEnC; assay type: cell-based; details: fluorescein-labeled peptide, confocal microscopy, hGEnC (human)
HeLa = assay: Uptake in multiple cell lines (Table 2): HeLa; assay type: cell-based; details: fluorescein-labeled peptide, confocal microscopy, HeLa (human)
Experimental: as §1
as §2, with “Subsequently, cells and cryosections were stained for 1 hour with anti-intelectin-1 (R&D Systems) or anti-LRP-1 (Abcam) antibodies, and after washing incubated for 1 hour with the appropriate Alexa Fluor-labelled secondary antibody (Invitrogen Molecular Probes).” left out

[4] = system: heparan sulphate on mGEnC; assay: Peptide uptake by mGEnC after removal of heparan sulphate (heparinases); assay type: cell-based, mouse; details: 5 μM, FIG. 1D
Experimental: (D) Digestion of heparan sulphate from the cell surface has a limited effect on the uptake of lactoferrin-derived peptides (5 μM). Percentage of uptake for heparan sulphate-cleaved compared to undigested cells is shown.
as §1
In order to further substantiate that uptake of hLF occurred by a mechanism different of the one typically observed for CPPs, we addressed the role of heparan sulphate proteoglycans (HSPGs).

HeLa cells = assay: Uptake of fluorescein-labelled peptides by HeLa cells (flow cytometry); assay type: cell-based, human; details: FIG. 1B
Experimental: as §1

[5] = Biodistribution of full-length lactoferrin, lactoferricin and hLF-6 in LPS-challenged mice (IVIS); assay type: in vivo; details: fluorescent label, i.v., 2 h
Experimental: Lactoferrin and lactoferricin are cloned in an expression plasmid containing the C-terminal Sortase-sequence protein-LPETG-HHHHHH. LPETGHHHHHH is SEQ ID NO: 98. Next, the protein is expressed overnight in E. coli and purified from sonicated bacterial cell lysates by Ni-NTA beads using 400 mM imidazole to elute the proteins. After overnight dialysis, full-length lactoferrin and hLF-6 are labelled by means of a Sortase exchange reaction on the C-terminus with a fluorescent dye (Alexa647 or Cy5.5) for 2 h at 4 °C using a fluorescently labelled donor peptide (formula:biotin-GSSG-LPETG-label or biotin-GSSG-LPETG-PEG40k-label) as substrate GSSGLPETG is SEQ ID NO: 99. Excess donor peptide is removed by means of streptavidin binding of the biotin tag on the N-terminus of the donor peptide. Next, the purified labelled protein/peptide is injected into LPS-challenged mice via intravenous injection in the tail vein. Mice are sacrificed after 2 h, and organs harvested for imaging by IVIS. Biodistribution is quantified for each organ, and relative distribution is shown.

- kidney/liver ratio (in words) [1]: still increased
- localization to the kidney ([1]; FIG. 5): reduced distribution to the kidney
Compound: CC(C)[C@H](NC(=O)[C@H](CCCCN)NC(=O)[C@H](CCCNC(=N)N)NC(=O)CN1CCN(CC(=O)O)CCN(CC(=O)O)CCN(CC(=O)O)CC1)C(=O)N[C@@H](CCCNC(=N)N)C(=O)NCC(=O)N1CCC[C@H]1C(=O)N1CCC[C@H]1C(N)=O [^111In-DOTA-hLF-7, ^111In-DOTA-RKVRGPP-NH2, metal not drawn] ({DOTA}-RKVRGPP-NH2)
- localization to the liver and spleen ([1]; FIG. 5): reduced distribution to the liver and spleen

Compound: Cy5.5-KCFQWQRNMRKVRGPPVSCIKR-NH2 ({Cy5.5}-KCFQWQRNMRKVRGPPVSCIKR-NH2; cysteine pairing not given here) [Cy5.5-hLF]
- organ with highest signal ([2]; IVIS): predominant distribution in kidney and liver
- organ with highest signal ([2]; IVIS, listed as Cy5.5-labeled hLF): highest signal for the peptide was present in the kidneys, followed by the liver
- biodistribution to the kidney with LPS-induced inflammation ([2]; IVIS, i.v., 4 hours, LPS-treated mice, FIG. 4A): increase biodistribution to the kidney
- urinary excretion (urine colour) ([2]; all injected mice): Urine was coloured by excreted Cy5.5-labelled peptide in all mice
- fluorescence in liver, lung and spleen ([2]; confocal microscopy, FIG. 4B): much lower fluorescence
- localization to the tubules, LPS-treated versus untreated ([2]; confocal microscopy, FIG. 4B): similar
- localization in the glomeruli ([2]; confocal microscopy, FIG. 4B): in glomeruli only in LPS-treated mice
- localization in the glomeruli ([2]; confocal microscopy, FIG. 4B, listed as Cy5.5-labeled hLF): clearly pronounced
- detection in the liver ([2]; histology of cryosections): singular cells appeared weakly positive
- detection in the spleen ([2]; histology of cryosections): could hardly be detected

- uptake after ITLN-1 siRNA compared to control siRNA (ITLN-1): not affected
Compound: transferrin: Alexa Fluor 633-labeled transferrin, marker for clathrin-mediated endocytosis [reference compound]
- effect of TNFα treatment on uptake (mGEnC treated with TNFα): not significantly affected

- uptake after ITLN-1 siRNA compared to control siRNA (ITLN-1): reduced uptake
Compound: KCLRWQNEMRKVGGPPLSCIKR [mLF, mouse variant of hLF]
- Uptake (Table 2) (Podocytes): High
- uptake in mGEnC [3]: uptake occurred similarly to hLF
- effect of TNFα treatment on uptake (mGEnC treated with TNFα): increased uptake
- Uptake (Table 2) (EOMA): High
- Uptake (Table 2) (HUVEC): High
- Uptake (Table 2) (mGEnC): High
- Uptake (Table 2) (hGEnC): High
- Uptake (Table 2) (HeLa): Low
- decrease in uptake after removal of heparan sulphate [4]: ~ 20%
- uptake in HeLa cells (HeLa cells): only a minimal uptake and not

Compound: RKVRGPPVSCIKRDS [hLF-6]
- accumulation in the kidney compared to lactoferrin and lactoferricin [5]: significantly greater accumulation in the kidney

- uptake after ITLN-1 siRNA compared to control siRNA (ITLN-1): not affected
Compound: CC[C@H](C)[C@H](NC(=O)[C@H](CCCCN)NC(=O)[C@@H](NC(=O)[C@H](CCC(N)=O)NC(=O)[C@@H](N)CCCNC(=N)N)[C@@H](C)CC)C(=O)N[C@@H](Cc1c[nH]c2ccccc12)C(=O)N[C@@H](Cc1ccccc1)C(=O)N[C@@H](CCC(N)=O)C(=O)N[C@@H](CC(N)=O)C(=O)N[C@@H](CCCNC(=N)N)C(=O)N[C@@H](CCCNC(=N)N)C(=O)N[C@@H](CCSC)C(=O)N[C@@H](CCCCN)C(=O)N[C@@H](Cc1c[nH]c2ccccc12)C(=O)N[C@@H](CCCCN)C(=O)N[C@@H](CCCCN)C(N)=O [penetratin, reference compound]
- Uptake (Table 2) (Podocytes): High
- uptake after TNFα treatment by confocal microscopy (mGEnC treated with TNFα): barely detectable
- increase of uptake after TNFα treatment (mGEnC treated with TNFα; 5 μM, FIG. 1E): 50-100%
- Uptake (Table 2) (EOMA): Low
- Uptake (Table 2) (HUVEC): High
- Uptake (Table 2) (mGEnC): Low
- Uptake (Table 2) (hGEnC): Low
- Uptake (Table 2) (HeLa): High
- uptake in HeLa cells (HeLa cells): show uptake

Reference: patent publication US20260355328A1, “A complex comprising a cargo and a targeting moiety binding intelectin-1” (Stichting Radboud universitair medisch centrum, priority 2022, published 2026)
